Key:
[1] = cited from earlier work
[2] = Biodistribution in probenicid-treated mice (inhibited renal tubular transport); format: in vivo; settings: probenicid-treated mice (50 mg/kg), 10 minutes after injection
Description: In order to test the biodistribution of Tc-99m-MAGGG in mice having inhibited renal tubular transport, six mice were injected with a solution of probenicid at the rate of 50 milligrams of probenicid per kilogram of body weight. Ten minutes later, each mouse was injected with 0.1 milliliters of a solution containing 0.5 microcuries of Tc-99m-MAGGG and 0.2 microcuries of I-131 OIH. After an additional ten minutes, each mouse was sacrificed and various samples taken to determine biodistribution of radiolabeled material.

[3] = Biodistribution in normal mice after intravenous injection (renal uptake); format: in vivo
Description: Tc-99m-MAGGG was administered simultaneously with I-131 OIH (as a reference standard) to six mice in two groups. Each mouse was injected intravenously with 0.1 milliliters of a preparation containing 0.5 microcuries of Tc-99m-MAGGG and 0.2 microcuries of I-131 OIH, and then placed into a metabolic cage capable of collecting excreted urine.
Ten minutes after injection, each mouse's urethra was ligated and the mouse was sacrificed by chloroform vapor; various samples were then taken to determine biodistribution of radiolabeled material. The results of these samples are shown in Table I. Similar measurements, shown in Table II, were taken on the second group of mice 120 minutes after injection.

[4] = Renal excretion in humans (normal volunteers); format: in vivo
Description: The renal excretion of Tc-99m-MAGGG in humans was obtained based upon experiments on normal volunteers. For purposes of comparison, tests were also conducted using I-131 OIH either immediately before or after the study using Tc-99m-MAGGG.
In Example 6, the Tc-99m-MAGGG used was prepared with stannous reduction similar to the procedure set forth in Example 2, with glucoheptonate being used as an intermediate exchange ligand. In Example 7, dithionite was used as a reducing agent instead of using stannous reduction. Both examples provided Tc-99m-MAGGG having the same major peak on a HPLC column.
In both examples, the subject was injected with a dosage containing about 15 millicuries of Tc-99m-MAGGG. The comparative tests utilizing I-131 OIH involved administration of about 300 microcuries of I-131 OIH. In both instances, imaging of the kidneys ureters, and blood pool was conducted for a period of about 30 minutes, following which the count rate in the bladder was measured.
Thereafter, the bladder was voided, and an additional image was taken to detect the presence of residual radioactivity in order to allow determination of the percent of urine radioactivity at 30 minutes. Measurements were also taken at 3 hours.

Row | Molecule | Blood ([3]; 10 minutes after injection) | Intestine ([3]; 10 minutes after injection) | Kidneys ([3]; 10 minutes after injection) | Liver ([3]; 10 minutes after injection) | Stomach ([3]; 10 minutes after injection) | Urine ([3]; 10 minutes after injection) | Blood ([3]; 120 minutes after injection) | Intestine ([3]; 120 minutes after injection) | Kidneys ([3]; 120 minutes after injection) | Liver ([3]; 120 minutes after injection) | Stomach ([3]; 120 minutes after injection) | Urine ([3]; 120 minutes after injection) | level in the urine relative to corresponding level of I-131 OIH ([3]; 10 minutes) | level in the urine relative to corresponding level of I-131 OIH ([3]; 120 minutes) | other results
1 | O=C(O)CNC(=O)c1ccccc1[131I] [I-131 OIH, I-131 ortho-iodohippurate, reference compound] | 4.1 percentage of radioactive agen | 1.0 percentage of radioactive agen | 2.2 percentage of radioactive agen | 1.8 percentage of radioactive agen | 0.5 percentage of radioactive agen | 74.4 percentage of radioactive agen | 0.14 percentage of radioactive agen | 0.16 percentage of radioactive agen | 0.06 percentage of radioactive agen | 0.11 percentage of radioactive agen | 0.98 percentage of radioactive agen | 96.0 percentage of radioactive agen | – | – | renal extraction efficiency ([1]; in vivo): 65%-80; Blood [2]: 7.0 percentage of radioactive agen; Intestine [2]: 2.0 percentage of radioactive agen; Kidneys [2]: 3.6 percentage of radioactive agen; Liver [2]: 3.7 percentage of radioactive agen; Stomach [2]: 0.75 percentage of radioactive agen; Urine [2]: 59.2 percentage of radioactive agen; urine radioactivity (renal excretion) ([4]; 30 minutes): 65.5 ± 6.3 percentage of radioactive agen; urine radioactivity (renal excretion) ([4]; 3 hours): 93.5 ± 3.2 percentage of radioactive agen
2 | Nc1ccc(C(=O)NCC(=O)O)cc1 [PAH, para-aminohippuric acid] | – | – | – | – | – | – | – | – | – | – | – | – | – | – | fraction in the blood removed by the kidneys ([1]; in vivo): ~90%; fraction removed from the plasma by active secretion into the tubules ([1]; in vivo): ~70%
3 | Tc-99m diethylenetriaminepentaacetic acid [Tc-99m-DTPA] | – | – | – | – | – | – | – | – | – | – | – | – | – | – | maximum extraction efficiency ([1]; glomerular filtration only): 20-25%
4 | Tc-99m-N,N'-bis(mercaptoacetyl)-2,3-diaminopropanoate [Tc-99m-CO2 -DADS-A] | – | – | – | – | – | – | – | – | – | – | – | – | – | – | excreted less effectively than I-131 OIH ([1]; in vivo): ~20%
5 | Tc-99m-N,N'-bis(mercaptoacetyl)-2,3-diaminopropanoate [Tc-99m-CO2 -DADS-B] | – | – | – | – | – | – | – | – | – | – | – | – | – | – | removal by the kidneys compared with Tc-99m-CO2-DADS-A isomer ([1]; in vivo): far less efficiently removed by the kidneys
6 | Tc-99m-mercapoacetylglycylglycylalanine [Tc-99m-MAGG-Alanine] | 2.6 percentage of radioactive agen | 1.6 percentage of radioactive agen | 5.2 percentage of radioactive agen | 2.6 percentage of radioactive agen | .2 percentage of radioactive agen | 75.1 percentage of radioactive agen | .2 percentage of radioactive agen | 2.2 percentage of radioactive agen | .3 percentage of radioactive agen | .1 percentage of radioactive agen | .2 percentage of radioactive agen | 96.0 percentage of radioactive agen | 106.4% | 102.2% | –
7 | Tc-99m-mercaptoacetylglycylglycylglycine [Tc-99m-MAGGG] | 2.6 percentage of radioactive agen | 1.1 percentage of radioactive agen | 3.5 percentage of radioactive agen | 2.9 percentage of radioactive agen | 0.1 percentage of radioactive agen | 79.9 percentage of radioactive agen | 0.03 percentage of radioactive agen | 1.2 percentage of radioactive agen | 0.06 percentage of radioactive agen | 0.08 percentage of radioactive agen | 0.02 percentage of radioactive agen | 98.5 percentage of radioactive agen | 107.3% | 102.6% | Blood [2]: 6.0 percentage of radioactive agen; Intestine [2]: 1.6 percentage of radioactive agen; Kidneys [2]: 5.4 percentage of radioactive agen; Liver [2]: 5.9 percentage of radioactive agen; Stomach [2]: 0.24 percentage of radioactive agen; Urine [2]: 64.7 percentage of radioactive agen; urine radioactivity (renal excretion) ([4]; 30 minutes): 71.8 ± 4.2 percentage of radioactive agen; urine radioactivity (renal excretion) ([4]; 3 hours): 98.6 ± 1.6 percentage of radioactive agen
8 | Tc-99m-mercaptoacetylglycylglycylglycylglycine [Tc-99m-MAGGGG] | 2.7 percentage of radioactive agen | 10.3 percentage of radioactive agen | 3.3 percentage of radioactive agen | 9.9 percentage of radioactive agen | .2 percentage of radioactive agen | 58.4 percentage of radioactive agen | .04 percentage of radioactive agen | 16.0 percentage of radioactive agen | .2 percentage of radioactive agen | 1.1 percentage of radioactive agen | .05 percentage of radioactive agen | 82.5 percentage of radioactive agen | 86.7% | 87.6% | –
